Source: patent US11033604B2, “Reagents and methods for treating bacterial infection” (priority 2018, dated 2021)
Positions of bridges follow the written chain, without caps; N, C: chain ends. Non-standard residues stand in square brackets, D forms with d. No end group written: not given here.

Experiments:
[1] = test system: S. aureus MN8+mCherry biofilms; experiment: Fluorescence microscopy of biofilm adhesion to glass; type: cell-based, Staphylococcus aureus; conditions: 80 μM, 24 h, 37° C.
Description: FIG. 2. S. aureus biofilm structures become less robust when grown in the presence of designed peptide inhibitors. (A) S. aureus MN8+mCherry™ biofilms were grown on glass substrates for 24 hours and then cells were washed and fixed. Addition of peptide inhibitors (80 μM) reduced adhesion to the slide, causing cells to detach during the wash step. Images are representative of duplicate wells. (B) In S. aureus SH1000 WT biofilms grown in regular LB medium, PSM amyloid fibrils are visible as deposits in spaces between cells (left). Upon addition of the designed peptide AP90 (80 μM), no extracellular fibril deposits were observed (right).
To further investigate the ability of designed peptides to inhibit PSM amyloid formation, fluorescent (mCherry™ ) MN8 biofilms were grown in culture plates with glass bottom wells. After 24 hours at 37° C. the biofilms were gently rinsed with pipetted saline to remove unattached biomass and the remaining attached cells were fixed and imaged. […] These qualitative results are in good agreement with the quantitative results obtained for amyloid inhibition in FIG. 1B. Addition of anti-α-sheet peptides triggered a significant reduction in PSM amyloid formation as measured by ThT fluorescence and also served to weaken the S. aureus biofilms by reducing the PSM amyloid fibril content of the extracellular matrix. […]

FapC = biological target: T1, FapC (Pseudomonas aeruginosa, UniProt Q9I2F0); experiment: FapC in vitro ThT aggregation assay; type: biochemical, P. aeruginosa; conditions: 0.2 mg/mL FapC, 37° C.
T1 sequence (Q9I2F0 25-340): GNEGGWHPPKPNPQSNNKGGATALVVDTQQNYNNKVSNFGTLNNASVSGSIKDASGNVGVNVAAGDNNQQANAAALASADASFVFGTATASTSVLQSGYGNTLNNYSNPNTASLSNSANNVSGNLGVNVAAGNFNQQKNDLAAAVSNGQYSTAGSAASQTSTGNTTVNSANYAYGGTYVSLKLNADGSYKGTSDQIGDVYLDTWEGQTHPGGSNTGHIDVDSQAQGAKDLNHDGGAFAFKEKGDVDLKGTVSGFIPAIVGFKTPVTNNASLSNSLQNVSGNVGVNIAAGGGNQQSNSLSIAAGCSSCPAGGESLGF
Description: FIG. 15. Action of synthetic α-sheet peptides in the P. aeruginosa system. […] Error bars indicate standard deviation of the mean of at least three replicates. Significance values are p<0.05: *, p<0.01: **, p<0.001: ***.
Samples are aliquoted into 96 well plates and incubated in a plate reader at 37° C. with shaking every 5 min. As previously, the fluorescence of ThT monitors protein fibril formation in real time. Synthetic α-sheet peptides may also be added to the reaction to determine whether they inhibit FapC fibril formation, as in the case of AP90 (FIG. 15A).

Substance	Biofilm attachment to glass after rinsing [1]	FapC fibril formation (ThT) (FapC)
RGEmNlCwMNEYSGWcMnLkMGR (RGE[dM]N[dL]C[dW]MNEYSGW[dC]M[dN]L[dK]MGR; disulfide 7-16 (inferred)) [AP407, variant of AP90 with a disulfide bond]	caused nearly all of the biofilm to detach	–
RGEmNlSwMNEYSGWtMnLkMGR (RGEMNLSWMNEYSGWTMNLKMGR; not fully specified (residues 4, 6, 8, 16, 18, 20); printed as RGEmNlSwMNEYSGWtMnLkMGR) [AP90]	–	inhibits fibril formation
